We go through four compounds from patent US20230048888A1, “USE OF TRIAZOLOTRIAZINE DERIVATIVE IN TREATMENT OF DISEASES” (ZHEJIANG VIMGREEN PHARMACEUTICALS, LTD., priority 2019, published 2023).

Data set [1] concerns the target T1, adenosine receptor A3 (Homo sapiens, UniProt P0DMS8).
T1 construct: host or cells: CHO
T1 sequence (P0DMS8 1-318): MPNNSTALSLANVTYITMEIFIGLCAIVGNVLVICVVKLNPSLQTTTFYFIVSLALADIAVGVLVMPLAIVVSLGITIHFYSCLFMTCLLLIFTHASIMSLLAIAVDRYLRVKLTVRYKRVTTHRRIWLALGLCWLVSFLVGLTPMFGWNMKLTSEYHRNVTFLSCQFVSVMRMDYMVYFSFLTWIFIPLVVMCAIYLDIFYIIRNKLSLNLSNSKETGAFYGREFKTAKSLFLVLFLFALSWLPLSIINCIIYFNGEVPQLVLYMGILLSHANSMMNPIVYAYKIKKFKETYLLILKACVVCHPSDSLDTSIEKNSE
The data set is described as follows: cAMP experiment on Gi-coupled adenosine receptor A3 (CHO). The conditions noted are these: cAMP accumulation; read-out: IC50 (nM) CHO cells (ADORA3). It is filed as cell-based. The protocol: Similarly, a CHO cell strain stably expressing the adenosine receptor A3 was taken as a study object (PerkinElmer, ES-012-C) for the experiment. The IC50 value of the compound was calculated.

For data set [2], the target named is T2, adenosine receptor A1 (Homo sapiens, UniProt P30542).
T2 construct: host or cells: CHO
T2 sequence (P30542 1-326): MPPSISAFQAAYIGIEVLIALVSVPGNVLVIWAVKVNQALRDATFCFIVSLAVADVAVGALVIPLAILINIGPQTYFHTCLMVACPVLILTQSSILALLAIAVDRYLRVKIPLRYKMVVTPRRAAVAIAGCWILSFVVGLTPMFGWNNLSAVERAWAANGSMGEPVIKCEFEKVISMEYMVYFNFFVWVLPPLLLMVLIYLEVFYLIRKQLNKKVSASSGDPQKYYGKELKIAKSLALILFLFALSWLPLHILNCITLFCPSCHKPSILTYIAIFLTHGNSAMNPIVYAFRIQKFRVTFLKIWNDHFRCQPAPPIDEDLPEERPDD
The data set is described as follows: cAMP experiment on Gi-coupled adenosine receptor A1 (CHO). The settings on record: cAMP accumulation, NECA EC80 + forskolin; read-out: IC50 (nM) CHO cells (ADORA1). It is filed as cell-based. The protocol: In this experiment, a CHO cell strain stably expressing the adenosine receptor Al was taken as a study object (PerkinElmer, ES-010-C) for the experiment. […] A solution system for cell inoculation was 10 μL of cAMP experimental buffer. […] Likewise, 10 mM test compound was also subjected to 3-fold gradient dilution in 100% DMSO. 1 mM forskolin (Sigma, F3917) was prepared with 100% DMSO. The gradient-diluted reference compound and test compound and the 1 mM forskolin were added to a 384-well compound plate (Labcyte, PP-0200). 10 nL of the 1 mM forskolin per well and 10 nL of the gradient-diluted reference agonist NECA per well were transferred to a test plate containing cells by using Echo (Labcyte, 550), and the test plate was incubated for 30 minutes at 37° C. 5 μL of Eu-cAMP tracer working solution and 5 μL of ULight-anti-cAMP working solution (PerkinElmer, TRF0263) were added to the test plate per well, and the test plate was incubated for 30 minutes at 25° C. […] 1000×EC80 NECA was prepared with 100% DMSO. 10 nL of the reference inhibitor DPCPX gradient-diluted per well and 10 nL of the test compound gradient-diluted per well per well were transferred to a test plate containing the cells, and the test plate was incubated for 20 minutes at 25° C. 10 nL of 1000×EC80 NECA per well and 10 nL of 1 mM forskolin per well were transferred to the test plate The test plate was incubated for 30 minutes at 37° C. 5 μL of Eu-cAMP tracer working solution and 5 μL of ULight-anti-cAMP working solution were added to the test plate per well, and the test plate was incubated for 30 minutes at 25° C. The fluorescence signal ratio of each well in the test plate was read, and the IC50 value of the compound was calculated by using the output data of the reference inhibitor and test compound and the concentration of the compound.

A short description of data set [3]: Pharmacokinetics of Compounds 27, 40, 22 and 41 in ICR mice in different modes of administration. The format is in vivo. The conditions noted are these: for Drug accumulation after consecutive oral administration: 30 mg/kg oral; for AUC(0-t) / Cmax / half-life: ICR; for AUC(0-t) / Cmax / half-life / clearance: mouse, in vivo; for clearance: IV, read-out: Cl—pred (converted). The text has this:
WinNonlin® 6.4 was used as the calculation software for PK parameters.

Data set [4] has as its target T3, adenosine receptor A2b (Homo sapiens, UniProt P29275).
T3 construct: host or cells: HEK293
T3 sequence (P29275 1-332): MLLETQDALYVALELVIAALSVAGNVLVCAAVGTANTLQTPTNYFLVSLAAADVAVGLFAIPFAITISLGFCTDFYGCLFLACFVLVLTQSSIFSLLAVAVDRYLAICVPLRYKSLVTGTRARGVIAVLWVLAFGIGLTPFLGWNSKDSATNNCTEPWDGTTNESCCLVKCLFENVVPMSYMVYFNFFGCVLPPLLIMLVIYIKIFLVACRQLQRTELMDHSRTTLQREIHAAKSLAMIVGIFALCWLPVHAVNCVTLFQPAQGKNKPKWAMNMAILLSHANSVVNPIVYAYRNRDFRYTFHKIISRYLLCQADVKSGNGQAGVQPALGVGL
The experiment in a line: cAMP experiment on Gs-coupled adenosine receptor A2b (HEK293). The conditions noted are these: cAMP accumulation, NECA EC80; read-out: IC50 (nM) HEK293 cells (ADORA2B). It is filed as cell-based. The protocol: In this experiment, a HEK293 cell line stably expressing the adenosine receptor A2b was taken as a study object (PerkinElmer, ES-013-C) for the experiment. […] A solution system for cell inoculation was 10 μL of cAMP experimental buffer. […] Similarly, 10 mM test compound was also subjected to 3-fold gradient dilution in 100% DMSO. The gradient-diluted reference compound and test compound were added to a 384-well compound plate (Labcyte, PP-0200). 10 nL of the gradient-diluted reference agonist NECA per well was transferred to a test plate containing cells by using Echo (Labcyte, 550), and the test plate was incubated for 30 minutes at 37° C. 5 μL of Eu-cAMP tracer working solution and 5 μL of ULight-anti-cAMP working solution (PerkinElmer, TRF0263) were added to the test plate per well, and the test plate was incubated for 30 minutes at 25° C. […] 1000×EC80 NECA was prepared with 100% DMSO. […] The test plate was incubated for 20 minutes at 25° C., and then 10 nL of the 1000×EC80 NECA per well was transferred to the test plate. The test plate was incubated for 30 minutes at 37° C. 5 μL of Eu-cAMP tracer working solution and 5 μL of ULight-anti-cAMP working solution were added to the test plate per well, and the test plate was incubated for 30 minutes at 25° C. The fluorescence signal ratio of each well in the test plate was read, and the IC50 value of the compound was calculated by using the output data of the reference inhibitor and test compound and the concentration of the compound.

The mark [5] stands for this setting: po, 30 mg/kg, PO (after 7 consecutive days of administration), 30 mg/kg.
Where [6] appears, read: PO (after 7 consecutive days of administration), 30 mg/kg.

Consider `COCCNc1ccc(CCNc2nc(N)n3nc(-c4ccco4)nc3n2)cc1` [Compound 27, 2-(furan-2-yl)-N5-(4-((2-methoxyethyl)amino)phenethyl)-[1,2,4]triazolo[1,5-a][1,3,5]triazine-5,7-diamine], for which the results for the half-inhibitory concentration (IC50) in data set [1], in data set [2] and in data set [4] were 458 nM, 679 nM and 307 nM, respectively. The “Drug accumulation after consecutive oral administration” value (“Drug accumulation” below) in data set [3] is given as “significant drug accumulation is not observed”. The AUC(0-t) came out at 495 ng·h/mL in data set [3] (iv, 1 mg/kg); 3100 ng·h/mL in data set [3] (po, 5 mg/kg); 41700 ng·h/mL in data set [3] (setting [5]); 33600 ng·h/mL in data set [3] (po, 30 mg/kg, PO (single)). The Cmax in data set [3] (iv, 1 mg/kg) was found to be 993 ng/mL; in data set [3] (po, 5 mg/kg), 1550 ng/mL; in data set [3] (setting [5]) it was 17300 ng/mL; in data set [3] (po, 30 mg/kg, PO (single)), 14500 ng/mL. For the same compound, the half-life is 0.67 h in data set [3] (iv, 1 mg/kg); 1.19 h in data set [3] (po, 5 mg/kg); 1.86 h in data set [3] (setting [5]); 1.12 h in data set [3] (po, 30 mg/kg, PO (single)). In addition, the “Cl—F—pred” value in data set [3] (setting [6]) is 12 mL/min/kg; in data set [3] (PO (single), 30 mg/kg) it was 15.3 mL/min/kg; in data set [3] (PO, 5 mg/kg) it was 27.5 mL/min/kg. In addition, the F in data set [3] (PO, 5 mg/kg) is reported as 125.29%. The clearance in data set [3] (1 mg/kg) is 33.8 mL/min/kg.

Regarding `CCn1c(=O)c2c(nc(/C=C/c3ccc(OC)c(OC)c3)n2C)n(CC)c1=O` [Istradefylline, reference compound], the 50% inhibitory concentration (IC50) in data set [1] came out at 2080 nM; in data set [2], 1200 nM.

In the case of `Nc1nc(NCCc2ccc(NC3COC3)cc2)nc2nc(-c3ccco3)nn12` [Compound 22, 2-(furan-2-yl)-N5-(4-(oxetan-3-ylamino)phenethyl)-[1,2,4]triazolo[1,5-a][1,3,5]triazine-5,7-diamine], the results for the concentration for half-maximal inhibition (IC50) in data set [1], in data set [2] and in data set [4] were 585 nM, 928 nM and 380 nM, respectively. Besides, in data set [3], the “Drug accumulation” value is recorded as “significant drug accumulation is not observed”. Besides, the AUC(0-t) turned out to be 925 ng·h/mL in data set [3] (iv, 1 mg/kg); 3960 ng·h/mL in data set [3] (po, 5 mg/kg); 15400 ng·h/mL in data set [3] (setting [5]); 18000 ng·h/mL in data set [3] (po, 30 mg/kg, PO (single)). Further, the Cmax in data set [3] (iv, 1 mg/kg) was 1690 ng/mL; in data set [3] (po, 5 mg/kg) it was 3510 ng/mL; in data set [3] (setting [5]), 4800 ng/mL; in data set [3] (po, 30 mg/kg, PO (single)), 9650 ng/mL. For the same compound, the half-life in data set [3] (iv, 1 mg/kg) was 0.94 h; in data set [3] (po, 5 mg/kg) it was 2.74 h; in data set [3] (setting [5]), 3.04 h; in data set [3] (po, 30 mg/kg, PO (single)), 2.22 h. Moreover, the “Cl—F—pred” value in data set [3] (setting [6]) was 32.5 mL/min/kg; in data set [3] (PO (single), 30 mg/kg), 27.8 mL/min/kg; in data set [3] (PO, 5 mg/kg) it was 21 mL/min/kg. Moreover, the F in data set [3] (PO, 5 mg/kg) is 85.72%. Further, the clearance in data set [3] (1 mg/kg) was 18.2 mL/min/kg.

Turning to `Cn1nnc(-c2ccc(CCNc3nc(N)n4nc(-c5ccco5)nc4n3)cc2)n1` [Compound 40, N5-(4-(2-methyl-2H-tetrazol-5-yl)phenethyl)-2-(furan-2-yl)-[1,2,4]triazolo[1,5-a][1,3,5]triazine-5,7-diamine], the figures for the IC50 in data set [1], in data set [2] and in data set [4] were 928 nM, 388 nM and 343 nM, respectively. Also, in data set [3], the “Drug accumulation” value is “significant drug accumulation is not observed”. The exposure AUC(0-t) in data set [3] (iv, 1 mg/kg) stood at 1540 ng·h/mL; in data set [3] (po, 5 mg/kg) it was 5540 ng·h/mL; in data set [3] (setting [5]), 10600 ng·h/mL; in data set [3] (po, 30 mg/kg, PO (single)) it was 24400 ng·h/mL. Also, the Cmax was 1880 ng/mL in data set [3] (iv, 1 mg/kg); 2130 ng/mL in data set [3] (po, 5 mg/kg); 2330 ng/mL in data set [3] (setting [5]); 14400 ng/mL in data set [3] (po, 30 mg/kg, PO (single)). In addition, the half-life in data set [3] (iv, 1 mg/kg) was 2.49 h; in data set [3] (po, 5 mg/kg), 2.36 h; in data set [3] (setting [5]), 2.79 h; in data set [3] (po, 30 mg/kg, PO (single)), 1.65 h. Further, the “Cl—F—pred” value in data set [3] (setting [6]) is 47 mL/min/kg; in data set [3] (PO (single), 30 mg/kg) it was 20.5 mL/min/kg; in data set [3] (PO, 5 mg/kg), 15 mL/min/kg. The F in data set [3] (PO, 5 mg/kg) stood at 71.99%. The clearance in data set [3] (1 mg/kg) is 10.8 mL/min/kg.
